Measured values from paper PMC9047515 (Biochemistry, 2022).
Where two headings read alike, the source gives them in different places.

How the values were obtained:
Experiment in all cases: stopped-flow absorption titration
Format in all cases: binding
BesC [1] = biological target: T1, BesC (Streptantibioticus cattleyicolor, UniProt F8JJ25)
BesC [2] = biological target: T1, BesC; remark: listed apart in the source
BesC [3] = biological target: T1, BesC; remark: listed apart in the source

T1 sequence (F8JJ25 whole entry): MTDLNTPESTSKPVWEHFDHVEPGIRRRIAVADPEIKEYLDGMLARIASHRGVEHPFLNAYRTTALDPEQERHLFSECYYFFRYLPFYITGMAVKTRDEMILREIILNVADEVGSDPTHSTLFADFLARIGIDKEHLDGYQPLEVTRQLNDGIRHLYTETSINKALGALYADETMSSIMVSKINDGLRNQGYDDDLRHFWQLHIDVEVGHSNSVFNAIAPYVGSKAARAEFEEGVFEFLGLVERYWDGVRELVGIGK

NCCSC[C@H](N)C(=O)O [4-thia-L-Lys, S-(2-aminoethyl)-L-cysteine] was tested, and the Kd (BesC [1]) was under 30 µM.
N[C@@H](CCCCO)C(=O)O [6-OH-L-Nle] showed a Kd (BesC [2]) of 10000 ± 1000 µM.
Work on NCCCC[C@H](N)C(=O)O [L-Lys] yielded a Kd (BesC [3]) of 300 ± 100 µM.
